Reference: ChEMBL document CHEMBL2406948, “Skeletal rearrangement of seven-membered iminosugars: synthesis of (-)-adenophorine, (-)-1-epi-adenophorine and derivatives and evaluation as glycosidase inhibitors” (Bioorg Med Chem, 2013)

How the values were obtained:
[1] = biological target: T1, Tissue alpha-L-fucosidase (Bos taurus, UniProt Q2KIM0); assay: Inhibition of bovine kidney alpha-L-fucosidase
T1 sequence (Q2KIM0 whole entry): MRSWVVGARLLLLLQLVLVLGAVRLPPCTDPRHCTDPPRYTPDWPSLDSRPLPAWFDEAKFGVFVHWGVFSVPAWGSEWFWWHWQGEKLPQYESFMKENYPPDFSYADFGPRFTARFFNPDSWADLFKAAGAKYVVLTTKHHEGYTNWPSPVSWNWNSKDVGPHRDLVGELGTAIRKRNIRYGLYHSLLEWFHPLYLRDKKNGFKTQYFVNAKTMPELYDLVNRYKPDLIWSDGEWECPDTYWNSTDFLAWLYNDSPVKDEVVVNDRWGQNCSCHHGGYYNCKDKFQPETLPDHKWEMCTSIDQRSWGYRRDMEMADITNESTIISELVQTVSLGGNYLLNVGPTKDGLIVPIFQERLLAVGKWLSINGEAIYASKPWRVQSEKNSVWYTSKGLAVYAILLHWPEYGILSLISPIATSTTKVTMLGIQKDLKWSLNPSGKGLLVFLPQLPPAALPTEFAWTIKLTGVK

[2] = tested on: Penicillium decumbens; assay: Inhibition of Penicillium decumbens alpha-L-rhamnosidase at 1000 uM
[3] = biological target: T2, Glucosylceramidase (Bos taurus) (UniProt Q2KHZ8); assay: Inhibition of bovine liver beta-glucosidase at 1000 uM
T2 sequence (whole entry): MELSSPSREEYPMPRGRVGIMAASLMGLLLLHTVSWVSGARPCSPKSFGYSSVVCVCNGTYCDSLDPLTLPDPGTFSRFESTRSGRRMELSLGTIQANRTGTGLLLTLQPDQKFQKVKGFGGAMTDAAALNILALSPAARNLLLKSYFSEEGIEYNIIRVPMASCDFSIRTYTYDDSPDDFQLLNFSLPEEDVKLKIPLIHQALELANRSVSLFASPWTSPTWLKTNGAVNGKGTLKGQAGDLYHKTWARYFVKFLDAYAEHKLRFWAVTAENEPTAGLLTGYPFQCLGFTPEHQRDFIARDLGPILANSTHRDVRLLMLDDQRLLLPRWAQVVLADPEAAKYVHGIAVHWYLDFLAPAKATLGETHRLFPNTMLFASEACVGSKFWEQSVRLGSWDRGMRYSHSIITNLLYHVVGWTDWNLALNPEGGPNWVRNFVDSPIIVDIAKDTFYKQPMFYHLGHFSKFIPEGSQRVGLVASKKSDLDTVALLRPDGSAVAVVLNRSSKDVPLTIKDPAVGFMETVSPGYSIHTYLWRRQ

[4] = biological target: T3, Beta-galactosidase (Bos taurus) (UniProt Q58D55); assay: Inhibition of bovine liver beta-galactosidase at 1000 uM
T3 sequence (whole entry): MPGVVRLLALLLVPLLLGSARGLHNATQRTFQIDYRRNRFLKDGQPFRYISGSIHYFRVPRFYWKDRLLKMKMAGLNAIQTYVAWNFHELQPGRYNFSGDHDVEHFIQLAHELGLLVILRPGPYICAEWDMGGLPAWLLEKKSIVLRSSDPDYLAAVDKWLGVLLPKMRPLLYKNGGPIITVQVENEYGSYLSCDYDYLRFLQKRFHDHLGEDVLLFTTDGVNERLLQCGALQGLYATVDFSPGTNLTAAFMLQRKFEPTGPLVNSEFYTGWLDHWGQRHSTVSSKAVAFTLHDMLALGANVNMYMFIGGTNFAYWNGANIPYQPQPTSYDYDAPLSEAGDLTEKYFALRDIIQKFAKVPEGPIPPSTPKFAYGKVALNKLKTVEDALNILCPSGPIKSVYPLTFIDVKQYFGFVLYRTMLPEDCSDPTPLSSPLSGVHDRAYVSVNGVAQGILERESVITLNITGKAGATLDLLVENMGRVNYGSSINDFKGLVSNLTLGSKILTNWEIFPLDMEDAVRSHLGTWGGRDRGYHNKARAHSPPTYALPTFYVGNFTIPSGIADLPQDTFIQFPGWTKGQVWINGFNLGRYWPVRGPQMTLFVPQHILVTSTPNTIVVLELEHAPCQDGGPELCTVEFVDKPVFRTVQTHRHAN

[5] = Inhibition of Escherichia coli beta-glucuronidase
[6] = biological target: T4, Tissue alpha-L-fucosidase (Bos taurus) (UniProt Q2KIM0); assay: Inhibition of bovine kidney alpha-L-fucosidase at 1000 uM
T4 sequence (whole entry): T1 sequence (Q2KIM0 whole entry)

[7] = biological target: T5, Beta-galactosidase (Bos taurus, UniProt Q58D55); assay: Inhibition of bovine liver beta-galactosidase
T5 sequence (Q58D55 whole entry): T3 sequence (whole entry)

[8] = Inhibition of Penicillium decumbens alpha-L-rhamnosidase

SMILES	IC50 [1] [µM]	inhibition [2] [%]	inhibition [3] [%]	inhibition [4] [%]	IC50 [5] [µM]	inhibition [6] [%]	IC50 [7] [µM]	IC50 [8] [µM]
CCC[C@@H]1N[C@@H](CO)[C@@H](O)[C@H](O)[C@H]1O	713	13	13.2	26.8	586	–	–	–
CC[C@@H]1N[C@@H](CO)[C@@H](O)[C@H](O)[C@H]1O	72	37.7	12.6	6.5	–	–	–	–
CC[C@@H]1N[C@H](CC)[C@H](O)[C@@H](O)[C@@H]1O	–	0	21.6	9.7	–	0	–	–

The next lines start with the values.

IC50 [1] [µM]	inhibition [2] [%]	inhibition [3] [%]	inhibition [4] [%]	IC50 [5] [µM]	inhibition [6] [%]	IC50 [7] [µM]	IC50 [8] [µM]	SMILES
–	–	–	–	–	37.2	526	231	CC[C@@H]1NC[C@@H](O)[C@@H](O)[C@H](O)[C@H]1O
–	5.3	24.6	12.1	–	36.7	–	–	CC[C@H]1NC[C@@H](O)[C@@H](O)[C@H](O)[C@H]1O
208	2.4	32.8	20.3	–	–	–	–	CC[C@H]1N[C@@H](CO)[C@@H](O)[C@H](O)[C@H]1O
